Laboratory results reported in patent US20260159481A1, “INDOLE DERIVATIVE WITH SUBSTITUENT AND PHARMACEUTICAL USE” (MITOIMMUNE THERAPEUTICS INC., priority 2023, published 2026).

How the values were obtained:
[1] = Pharmacokinetics in plasma after oral administration to ICR mice; format: in vivo; settings: oral 10 mg/kg
Procedure: Pharmacokinetic parameters may include the maximum plasma concentration (Cmax), the time to reach the maximum plasma concentration (Tmax), the area under the plasma concentration-time curve (AUCinf), and a half-life (t1/2).
Example Compound 27 was orally administered to ICR mice at a dose of 10 mg/kg. Drug concentrations in the plasma of mice were measured by HPLC-MS/MS spectroscopy 0.5, 1, 2, 4, 8, or 24 hours after administration.
The comparative example compound was orally administered to ICR mice at a dose of 10 mg/kg. The drug concentrations in the plasma of the mice were measured by HPLC-MS/MS 0.5, 1, 2, 4, 8, or 24 hours after administration.

[2] = system: renal fibroblasts (NRK-49F); test: Protective effect against cell death due to RSL3 (LDH release), NRK-49F; format: cell-based; settings: Rattus norvegicus, RSL3 3 μM, 24 hours
Procedure: (§1) To confirm cell death protection effects on cardiac cells, adrenal medullary cells, renal fibroblasts, retinal epithelial cells, lung epithelial cells, renal proximal tubular epithelial cells, hippocampal neurons and fibroblasts, each type of cells were seeded at 4×10^3 to 1.2×10^4 cells/well in a 96-well plate and cultured for 18 to 24 hours. The example compounds were diluted to have the final concentration of 0.001, 0.003, 0.01, 0.3, 1, 3, and 10 μM, respectively, and then added to different wells and cultured for 15 to 20 minutes. […] To confirm the cell death protection effect of the example compounds, the degree of extracellular secretion of lactate dehydrogenase (LDH) was measured using a cytotoxicity LDH assay kit [Dojindo; CK12]. Briefly, at the end of 24-hour treatment of each type of cells with RSL3, 70 μL of the supernatant was taken from the 96-well plate where the cells were cultured and transferred to a new 96-well plate. The assay buffer included in the kit was added at 70 μL/well (equal to that of the sample) and the plate was covered with foil to block light and allowed to react for 15 to 20 minutes at room temperature. While observing a color change of the sample, 35 µL/well of a stop solution was added, an absorbance at 490 nm was measured using an iD3 spectrophotometer, and an EC50 value was calculated.

[3] = system: renal proximal tubular epithelial cells (HK2); test: Protective effect against cell death due to RSL3 (LDH release), HK2; format: cell-based; settings: Epithelial cell, RSL3 0.3 μM, 24 hours
Procedure: as §1

[4] = system: hippocampal neurons (HT-22); test: Protective effect against cell death due to RSL3 (LDH release), HT-22; format: cell-based; settings: Mus musculus, RSL3 0.3 μM, 24 hours
Procedure: as §1

[5] = system: fibroblasts (NIH/3T3); test: Protective effect against cell death due to RSL3 (LDH release), NIH/3T3; format: cell-based; settings: Mus musculus, NIH3T3, RSL3 3 μM, 24 hours
Procedure: as §1

[6] = system: cardiac cells (H9C2); test: Protective effect against t-BHP-induced cell death in cardiac cells (LDH release); format: cell-based; settings: Rattus norvegicus, t-BHP 400 PM, 2 hours, read-out: EC50, protective effect against cell death due to t-BHP induction
Procedure: To confirm a protective effect on cardiac cells, H9C2 cells were seeded at 1.5×10^4 cells/well in a 96-well plate and cultured for 24 hours. The example compounds were diluted to have the final concentration of 0.001, 0.01, 0.03, 0.1, 0.3, 1, 3, 10, and 30 PM, respectively, and then added to different wells, and the resulting cells were cultured for 15 to 20 minutes. Tert-butyl hydroperoxide (t-BHP) was treated to have the final concentration of 400 PM, and the resulting cells were cultured for 2 hours. To confirm the cell death protection effect of each compound, the degree of extracellular secretion of lactate dehydrogenase (LDH) was measured using a cytotoxicity LDH assay kit [Dojindo; CK12]. Briefly, after 2 hours of t-BHP treatment on the cells, 70 μL of the supernatant was taken from the 96-well plate where the cells were cultured and transferred to a new 96-well plate. The assay buffer included in the kit was added at 70 μL/well (equal to that of the sample) and the plate was covered with foil to block light and allowed to react for 15 minutes at room temperature. While observing a color change of each sample, 35 μL/well of a stop solution was added, an absorbance at 490 nm was measured using an iD3 spectrophotometer, and an EC50 value was calculated.

[7] = system: lung epithelial cells (MLE-12); test: Protective effect against cell death due to RSL3 (LDH release), MLE-12; format: cell-based; settings: MLE12, RSL3 1 μM, 24 hours
Procedure: as §1

[8] = system: cardiac cells (H9C2); test: Protective effect against cell death due to RSL3 (LDH release), H9C2; format: cell-based; settings: Rattus norvegicus, RSL3 0.5 μM, 24 hours
Procedure: as §1

[9] = system: retinal epithelial cells (ARPE-19); test: Protective effect against cell death due to RSL3 (LDH release), ARPE-19; format: cell-based; settings: Homo sapiens, RSL3 0.3 μM, 24 hours
Procedure: as §1

[10] = system: adrenal medullary cells (PC-12); test: Protective effect against cell death due to RSL3 (LDH release), PC-12; format: cell-based; settings: Rattus norvegicus, RSL3 0.3 μM, 24 hours
Procedure: as §1

| SMILES | EC50 [2] [µM] | EC50 [3] [µM] | EC50 [4] [µM] | EC50 [5] [µM] | EC50 [6] [µM] | EC50 [7] [µM] | EC50 [8] [µM] | EC50 [9] [µM] | EC50 [10] [µM] | other results |
| --- | --- | --- | --- | --- | --- | --- | --- | --- | --- | --- |
| OCc1cc(NC2CCCC2)c2[nH]c(-c3ccccc3)cc2c1 [Comparative Example, [7-(cyclopentylamino)-2-phenyl-1H-indol-5-yl]methanol, reference compound] |  |  |  |  |  |  |  |  |  | Cmax ([1]; mouse, plasma): 2110 ng/mL; Tmax ([1]; mouse, plasma): 1 h; half-life ([1]; mouse, plasma): 1.4 h; concentration at 0.5 h ([1]; mouse, plasma): 1640 ng/mL; concentration at 1 h ([1]; mouse, plasma): 2110 ng/mL; concentration at 2 h ([1]; mouse, plasma): 1120 ng/mL; concentration at 4 h ([1]; mouse, plasma): 389 ng/mL; concentration at 8 h ([1]; mouse, plasma): 51 ng/mL; AUCinf ([1]; plasma): 5,459 ng · hr/mL; area under the plasma concentration-time curve (AUCinf) ([1]; plasma): 5460 ng·h/mL |
| O=C(NC1CC1)c1cc(NCc2ccncc2)c2[nH]c(-c3ccccc3)cc2c1 [Example 8, N-cyclopropyl-2-phenyl-7-((pyridin-4-ylmethyl)amino)-1H-indole-5-carboxamide] | 0.1 to 1 | 0.1 to 1 | > 1 | 0.1 to 1 | ≤ 0.3 | 0.1 to 1 | 0.1 to 1 | ≤ 0.1 | 0.1 to 1 |  |
| CCN(CC)C(=O)Cc1cc(NCc2ccccc2)c2[nH]c(-c3ccccc3)cc2c1 [Example 14, 2-(7-(benzylamino)-2-phenyl-1H-indol-5-yl)-N,N-diethylacetamide] | ≤ 0.1 | ≤ 0.1 | 0.1 to 1 | 0.1 to 1 | 0.3 to 1 | ≤ 0.1 | ≤ 0.1 | ≤ 0.1 | ≤ 0.1 |  |
| CCNS(=O)(=O)c1cc(NC2CCCC2)c2[nH]c(-c3ccccc3)cc2c1 [Example 22, 7-(cyclopentylamino)-N-ethyl-2-phenyl-1H-indole-5-sulfonamide] | ≤ 0.1 | ≤ 0.1 | 0.1 to 1 | 0.1 to 1 | 0.3 to 1 | 0.1 to 1 | ≤ 0.1 | ≤ 0.1 | 0.1 to 1 |  |
| OCCOCc1cc(NC2CCOCC2)c2[nH]c(-c3ccccc3)cc2c1 [Example 27, 2-((2-phenyl-7-((tetrahydro-2H-pyran-4-yl)amino)-1H-indol-5-yl)methoxy)ethan-1-ol] | ≤ 0.1 | ≤ 0.1 | ≤ 0.1 | ≤ 0.1 | ≤ 0.3 | 0.1 to 1 | ≤ 0.1 | ≤ 0.1 | ≤ 0.1 | Cmax ([1]; mouse, plasma): 4440 ng/mL; Tmax ([1]; mouse, plasma): 1 h; half-life ([1]; mouse, plasma): 2.83 h; AUC(0-inf) ([1]; mouse, plasma, read-out: area under the plasma concentration-time curve (AUCinf)): 25100 ng·h/mL; concentration at 0.5 h ([1]; mouse, plasma): 3830 ng/mL; concentration at 1 h ([1]; mouse, plasma): 4440 ng/mL; concentration at 2 h ([1]; mouse, plasma): 3780 ng/mL; concentration at 4 h ([1]; mouse, plasma): 2800 ng/mL; concentration at 8 h ([1]; mouse, plasma): 1080 ng/mL; concentration at 24 h ([1]; mouse, plasma, 24 hr): 1 ng/mL; exposure (AUCinf) relative to the comparative example compound [1]: approximately 5 times; half-life relative to the comparative example compound [1]: approximately 2 times; maximum plasma concentration (Cmax) relative to the comparative example compound [1]: approximately 2 times; AUCinf ([1]; plasma): 25,115 ng · hr/mL |
| CC1(O)CCC(OCc2cc(NC3CCOCC3)c3[nH]c(-c4ccccc4)cc3c2)CC1 (stereo not shown) [Example 36, 1-methyl-4-((2-phenyl-7-((tetrahydro-2H-pyran-4-yl)amino)-1H-indol-5-yl)methoxy)cyclohexan-1-ol] | ≤ 0.1 | ≤ 0.1 | 0.1 to 1 | 0.1 to 1 | ≤ 0.3 | 0.1 to 1 | ≤ 0.1 | ≤ 0.1 | 0.1 to 1 |  |
| FC(F)COCc1cc(NC2CCOCC2)c2[nH]c(-c3ccccc3)cc2c1 [Example 40, 5-((2,2-difluoroethoxy)methyl)-2-phenyl-N-(tetrahydro-2H-pyran-4-yl)-1H-indol-7-amine] | ≤ 0.1 | ≤ 0.1 | ≤ 0.1 | 0.1 to 1 | ≤ 0.3 | ≤ 0.1 | ≤ 0.1 | ≤ 0.1 | ≤ 0.1 |  |
| c1ccc(-c2cc3cc(COCCN4CCOCC4)cc(NC4CCCC4)c3[nH]2)cc1 [Example 41, N-cyclopentyl-5-((2-morpholinoethoxy)methyl)-2-phenyl-1H-indol-7-amine] | ≤ 0.1 | ≤ 0.1 | ≤ 0.1 | 0.1 to 1 | ≤ 0.3 | ≤ 0.1 | ≤ 0.1 | ≤ 0.1 | ≤ 0.1 |  |
| COCCN(C)Cc1cc(NC2CCOCC2)c2[nH]c(-c3ccccc3)cc2c1 [Example 55, 5-(((2-methoxyethyl)(methyl)amino)methyl)-2-phenyl-N-(tetrahydro-2H-pyran-4-yl)-1H-indol-7-amine] |  |  |  |  | ≤ 0.3 |  |  |  |  |  |
| COCCOCCNC(=O)c1cc(NC2CCOCC2)c2[nH]c(-c3ccccc3)cc2c1 [Example 56, N-(2-(2-methoxyethoxy)ethyl)-2-phenyl-7-((tetrahydro-2H-pyran-4-yl)amino)-1H-indole-5-carboxamide] |  |  |  |  | 0.3 to 1 |  |  |  |  |  |
| COCCOCCNCc1cc(NC2CCOCC2)c2[nH]c(-c3ccccc3)cc2c1 [Example 57, 5-(((2-(2-methoxyethoxy)ethyl)amino)methyl)-2-phenyl-N-(tetrahydro-2H-pyran-4-yl)-1H-indol-7-amine] |  |  |  |  | ≤ 0.3 |  |  |  |  |  |
| COCCOCCN(C)Cc1cc(NC2CCOCC2)c2[nH]c(-c3ccccc3)cc2c1 [Example 58, 5-(((2-(2-methoxyethoxy)ethyl)(methyl)amino)methyl)-2-phenyl-N-(tetrahydro-2H-pyran-4-yl)-1H-indol-7-amine] |  |  |  |  | ≤ 0.3 |  |  |  |  |  |
| CS(=O)(=O)NCCOCc1cc(NC2CCOCC2)c2[nH]c(-c3ccccc3)cc2c1 [Example 59, N-(2-((2-phenyl-7-((tetrahydro-2H-pyran-4-yl)amino)-1H-indol-5-yl)methoxy)ethyl)methanesulfonamide] |  |  |  |  | ≤ 0.3 |  |  |  |  |  |
| COCCNCCOCc1cc(NC2CCOCC2)c2[nH]c(-c3ccccc3)cc2c1 [Example 60, 5-((2-((2-methoxyethyl)amino)ethoxy)methyl)-2-phenyl-N-(tetrahydro-2H-pyran-4-yl)-1H-indol-7-amine] |  |  |  |  | ≤ 0.3 |  |  |  |  |  |
| COCCN(C)CCOCc1cc(NC2CCOCC2)c2[nH]c(-c3ccccc3)cc2c1 [Example 61, 5-((2-((2-methoxyethyl)(methyl)amino)ethoxy)methyl)-2-phenyl-N-(tetrahydro-2H-pyran-4-yl)-1H-indol-7-amine] |  |  |  |  | ≤ 0.3 |  |  |  |  |  |
